Data: patent publication US11851391B2, “Antifungal compounds and methods of forming the same” (University of Kentucky Research Foundation, priority 2018, dated 2023)
Converted amounts (≈) assume the structure as drawn. “Also recorded” adds a separate entry of the source. Where two headings read alike, the source gives them in different places.

Tests used:
[1] = test system: Candida albicans ATCC 10231(R) (strain A); experiment: MIC determination, in vitro antifungal assay (CLSI M27-A3); format: cell-based; conditions: Candida albicans, ATCC10231, 48 h, MIC-0 (no visible growth), 48 h at 35° C., read-out: MIC
Procedure, shortened: (§1)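 Complete-inhibition MIC (MIC-0) endpoint. Yeast inoculum of 2-4×10^3 CFU/mL in pH 7.0 MOPS-buffered RPMI 1640, incubated at 35° C following CLSI M27-A3 with modifications; final DMSO below 1.25%.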

[2] = test system: Candida parapsilosis ATCC 22019 (strain J); experiment: as above; format: cell-based; conditions: Lodderomyces parapsilosis, read-out: MIC
Procedure, shortened: as §1

[3] = test system: C. albicans ATCC 64124(R) (strain B); experiment: as above; format: cell-based, Candida albicans; conditions: Candida albicans, read-out: MIC
Procedure, shortened: as §1

[4] = test system: C. albicans ATCC 90819(R) (strain D); experiment: as above; format: cell-based, Candida albicans; conditions: Candida albicans, ATCC90819, 48 h, MIC-0, 48 h at 35° C., read-out: MIC
Procedure, shortened: as §1

[5] = test system: C. albicans ATCC MYA-1237(R) (strain F); experiment: as above; format: cell-based, Candida albicans; conditions: Candida albicans, read-out: MIC
Procedure, shortened: as §1

[6] = test system: C. albicans ATCC MYA-2310(S) (strain E); experiment: as above; format: cell-based, Candida albicans; conditions: Candida albicans, read-out: MIC
Procedure, shortened: as §1

[7] = test system: C. albicans ATCC MYA-1003(R) (strain G); experiment: as above; format: cell-based, Candida albicans; conditions: Candida albicans, 48 h, MIC-0, 48 h at 35° C., read-out: MIC
Procedure, shortened: (§2)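 Inoculum 2-4×10^3 CFU/mL from overnight YPD culture (OD600 0.12 ≈ 1×10^6 CFU/mL). DMSO <1.25% final.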

[8] = test system: C. albicans ATCC MYA-2876(S) (strain C); experiment: as above; format: cell-based, Candida albicans; conditions: Candida albicans, 48 h, MIC-0, 48 h at 35° C., read-out: MIC
Procedure, shortened: as §2

[9] = test system: Candida glabrata ATCC 2001 (strain H); experiment: as above; format: cell-based; conditions: MIC-0, 48 h at 35° C.
Procedure, shortened: as §2

[10] = test system: Candida krusei ATCC 6258 (strain I); experiment: as above; format: cell-based; conditions: Pichia kudriavzevii, ATCC6258, 48 h, MIC-0, 48 h at 35° C., read-out: MIC
Procedure, shortened: as §2

[11] = test system: Aspergillus flavus ATCC MYA-3631 (strain K); experiment: MIC determination against filamentous fungi (CLSI M38-A2); format: cell-based; conditions: Aspergillus flavus, 48 h, MIC-0, 48 h at 35° C., read-out: MIC
Procedure, shortened: (§3)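 MIC-0, meaning no visible growth relative to growth control, was scored after 48 h at 35° C, in triplicate. Hemocytometer-counted spores from potato dextrose agar were inoculated at 5×10^5 CFU/mL final. The medium was MOPS-buffered (0.165 M) RPMI 1640 at pH 7.0, following CLSI M38-A2.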

[12] = test system: Aspergillus nidulans ATCC 38163 (strain L); experiment: as above; format: cell-based; conditions: Aspergillus nidulans, ATCC38163, 48 h, MIC-0, 48 h at 35° C., read-out: MIC
Procedure, shortened: as §3

[13] = test system: Aspergillus terreus ATCC MYA-3633 (strain M); experiment: as above; format: cell-based; conditions: Aspergillus terreus, 48 h, MIC-0, 48 h at 35° C., read-out: MIC
Procedure, shortened: as §3

[14] = test system: various yeast strains and filamentous fungi (strains A-M); experiment: Antifungal activity over the whole panel (summary of MIC data); format: cell-based, Candida and Aspergillus strains
Method: The activity of N,N′-diaryl-bishydrazones 7-22 was tested against a panel of seven strains of C. albicans: ATCC 10231(R) (A), ATCC 64124(R) (B), ATCC MYA-2876(S) (C), ATCC 90819(R) (D), ATCC MYA-2310(S) (E), ATCC MYA-1237(R) (F), and ATCC MYA-1003(R) (G). The activity of these bishydrazones 7-22 was also explored against a panel of three non-albicans Candida strains: C. glabrata ATCC 2001 (H), C. krusei ATCC 6258 (I), and C. parapsilosis ATCC 22019 (J). Finally, the activity of these bishydrazones 7-22 was explored against three Aspergillus strains: A. flavus ATCC MYA-3631 (K), A. nidulans ATCC 38163 (L), and A. terreus ATCC MYA-3633 (M).
The MIC values of compounds 7a-24c against yeast cells (strains A-J) were determined in 96-well plates as described in the CLSI document M27-A3 with minor modifications. A single colony of freshly prepared yeast cells was used to inoculate 5 mL of yeast extract peptone dextrose (YPD) broth prior to incubation overnight with shaking at 200 rpm at 35° C. From the actively growing yeast culture, 100 μL were then transferred to 900 μL of sterile ddH2O and re-adjusted to achieve OD600 of 0.12 (˜1×10^6 CFU/mL). The cell suspension was further diluted to achieve 2-4×10^3 CFU/mL in RPMI 1640 medium. […] The final concentration of DMSO was ensured to be <1.25% in all experiments. The MIC values for compounds 7a-24c and CAS were defined as the minimum drug concentration that yielded complete inhibition (also known as MIC-0).
Similarly, the MIC values of compounds 7a-24c, as well as that of the two control drugs against filamentous fungi (strains K-M) were determined as previously described in CLSI document M38-A2. Spores were harvested from sporulating cultures growing on potato dextrose agar (PDA) by filtration through sterile glass wool and enumerated by using a hemocytometer to obtain the desired inoculum size. […] Spore suspensions were added to the wells to afford a final concentration of 5×10^5 CFU/mL. The plates were incubated at 35° C. for 48 h. The MIC values of compounds 7a-24c and CAS against filamentous fungi were based on the complete inhibition of growth when compared to the growth control (MIC-0). […] Each test was performed in triplicate.

[15] = test system: various bacterial strains, including Listeria monocytogenes, methicillin-resistant Staphylococcus aureus, and vancomycin-resistant enterococci; experiment: Antibacterial activity; format: cell-based
From the text: The activity of N,N′-diaryl-bishydrazones 7-22 was explored against various bacterial strains, including Listeria monocytogenes, methicillin-resistant Staphylococcus aureus, and vancomycin-resistant enterococci.

[16] = test system: murine red blood cells (mRBCs); conditions: mouse, 60 min
Method: Thus, the hemolytic activity for these bishydrazones was investigated against murine red blood cells (mRBCs).
Murine red blood cells (mRBCs) were prepared by suspending 1 mL of murine blood in 3 mL of PBS prior to centrifugation at 1,000 rpm for 5 min. The mRBCs were washed four times in PBS and resuspended in the same buffer to a final concentration of 10^7 mRBC/mL. […] The tubes were incubated at 37° C. for 60 min. […] Eppendorf tubes containing 200 μL of ddH2O and 2 μL of 1% v/v Triton™ X-100 served as negative (blank) and positive controls, respectively. The percentage of hemolysis was calculated using the following equation: % hemolysis=[(absorbance of sample)−(absorbance of blank)]×100/(absorbance of positive control).

[17] = test system: C. albicans ATCC 90819(R) (strain D); experiment: MIC determination, in vitro antifungal assay (CLSI M27-A3); format: cell-based; conditions: Candida albicans, ATCC90819, strain D; MIC-2 (50% growth inhibition), reported for VOR
[18] = MIC-2 (50% growth inhibition), reported for VOR

CC(C)(C)N/N=C/c1ccc(-c2ccc(/C=N/NC(C)(C)C)cc2)cc1 [Compound 23b]
MIC [1]: 31.3 µg/mL (≈ 89.3 µM)
MIC ([2]; ATCC22019, 48 h, strain J, MIC-0, 48 h at 35° C.): > 31.3 µg/mL
MIC ([3]; ATCC64124, 48 h, strain B, MIC-0, 48 h at 35° C.): 31.3 µg/mL (≈ 89.3 µM)
MIC [4]: > 31.3 µg/mL
MIC ([5]; 48 h, MIC-0, 48 h at 35° C.): 31.3 µg/mL (≈ 89.3 µM)
MIC ([6]; 48 h, MIC-0, 48 h at 35° C.): 31.3 µg/mL (≈ 89.3 µM)
MIC [7]: > 31.3 µg/mL
MIC [8]: > 31.3 µg/mL
MIC [9]: 15.6 µg/mL (≈ 44.5 µM)
MIC ([9]; Nakaseomyces glabratus, ATCC2001, 48 h, read-out: MIC): 15.6 µg/mL (≈ 44.5 µM)
MIC [10]: 31.3 µg/mL (≈ 89.3 µM)
MIC [11]: > 31.3 µg/mL
MIC [12]: 31.3 µg/mL (≈ 89.3 µM)
MIC [13]: > 31.3 µg/mL
MIC ([14]; against all fungal strains tested, with named exceptions, read-out: antifungal activity class based on MIC values): ≥ 31.3 µg/mL
antifungal activity (in words) ([14]; over the fungal strains tested, based on MIC data of Table 1): inactive
antibacterial activity (in words) [15]: neither the N,N′-diaryl-bishydrazones 7-22 nor the N,N′-di-tert-butyl-bishydrazone 23b displayed antibacterial activity; also recorded: Neither the N,N′-diaryl-bishydrazones 7-22 or the N,N′-dialkyl-bishydrazone 23b displayed antibacterial activity

C[C@@H](c1ncncc1F)[C@](O)(Cn1cncn1)c1ccc(F)cc1F [VOR, voriconazole, reference compound]
MIC [1]: 0.975 µg/mL (≈ 2.79 µM)
MIC ([2]; ATCC22019, strain J, MIC-2 (50% growth inhibition), reported for VOR): 1.95 µg/mL (≈ 5.58 µM)
MIC ([3]; ATCC64124, strain B, MIC-2 (50% growth inhibition), reported for VOR): 0.24 µg/mL (≈ 0.687 µM)
MIC [5, 18]: 0.24 µg/mL (≈ 0.687 µM)
MIC [6, 18]: 0.12 µg/mL (≈ 0.344 µM)
MIC [11]: > 31.3 µg/mL
MIC [12]: > 31.3 µg/mL
MIC [13]: > 31.3 µg/mL
Percentage of hemolysis (±SDEV) ([16]; 0.975 μg/mL): 10.3 ± 2.1%
Percentage of hemolysis (±SDEV) ([16]; 1.95 μg/mL): 6.3 ± 1.9%
Percentage of hemolysis (±SDEV) ([16]; 3.9 μg/mL): 7.5 ± 0.5%
Percentage of hemolysis (±SDEV) ([16]; 7.8 μg/mL): 11.4 ± 10.9%
Percentage of hemolysis (±SDEV) ([16]; 15.6 μg/mL): 2.8 ± 1.3%
MIC [17]: 0.12 µg/mL (≈ 0.344 µM)
